In patent US10941157B2, “Pesticidal compositions and uses thereof” (Gilead Apollo, LLC, priority 2015, dated 2021):
Values after ≈ are worked out from the molar mass of the structure shown. Where two headings read alike, the source gives them in different places.

How the values were obtained:
Assay type in all cases: cell-based
[1] = tested on: Fusarium moniliforme (Fm); assay: In vitro pathogen growth inhibition assay, Fm; settings: Fusarium verticillioides
Summary of the method: (§1)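 Spores in 17% V8 liquid medium, or 1.5 mm Rs mycelial plugs in ¼ PDB, incubated with compound; final concentration checked by OD600 for precipitation. OD readings at 24 and 48 h, blank-subtracted, plus visual ratings; value is concentration giving ≥90% growth inhibition.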

[2] = tested on: Diplodia maydis (Dm); assay: In vitro pathogen growth inhibition assay, Dm; settings: Stenocarpella maydis, 48 h
Summary of the method: (§2)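 Value reported is the compound concentration reaching ≥90% growth inhibition, from OD readings at 24 and 48 h after blank subtraction, confirmed visually. Inoculum was spores diluted in 17% V8 medium, except Rs, using 1.5 mm mycelial plugs in ¼ PDB; actual compound concentration corrected via OD600.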

[3] = tested on: Botrtyis cinerea (Bc); assay: In vitro pathogen growth inhibition assay, Bc; settings: 48 h
Summary of the method: as §1

[4] = tested on: Rhizoctonia solani (Rs); assay: In vitro pathogen growth inhibition assay, Rs (mycelial plugs); settings: Rhizoctonia solani, 48 h
Summary of the method: as §2

[5] = tested on: Fusarium virguliforme (Fv); assay: In vitro pathogen growth inhibition assay, Fv
Summary of the method: as §2

[6] = tested on: Collectotrichum graminicola (Cg); assay: In vitro pathogen growth inhibition assay, Cg; settings: 48 h
Summary of the method: as §1

[7] = tested on: Septoria tritici (St); assay: In vitro pathogen growth inhibition assay, St; settings: Zymoseptoria tritici, 48 h
Summary of the method: as §1

[8] = tested on: Phytophthora capsici (Pc); assay: In vitro pathogen growth inhibition assay, Pc; settings: 48 h
Summary of the method: as §2

[9] = ≥90% inhibition, 48 hours vs 2% DMSO control, read-out: Compound Concentration (ppm) sufficient for ≥90% inhibition of growth, Fm
[10] = ≥90% inhibition, 48 hours vs 2% DMSO control, read-out: Compound Concentration (ppm) sufficient for ≥90% inhibition of growth, Dm
[11] = ≥90% inhibition, 48 hours vs 2% DMSO control, read-out: Compound Concentration (ppm) sufficient for ≥90% inhibition of growth, Bc
[12] = ≥90% inhibition, mycelial plugs, 48 hours vs 2% DMSO control, read-out: Compound Concentration (ppm) sufficient for ≥90% inhibition of growth, Rs
[13] = ≥90% inhibition, 48 hours vs 2% DMSO control, read-out: Compound Concentration (ppm) sufficient for ≥90% inhibition of growth, Fv
[14] = ≥90% inhibition, 48 hours vs 2% DMSO control, read-out: Compound Concentration (ppm) sufficient for ≥90% inhibition of growth, Cg
[15] = ≥90% inhibition, 48 hours vs 2% DMSO control, read-out: Compound Concentration (ppm) sufficient for ≥90% inhibition of growth, St
[16] = ≥90% inhibition, 48 hours vs 2% DMSO control, read-out: Compound Concentration (ppm) sufficient for ≥90% inhibition of growth, Pc
[17] = concentration sufficient to ≥90% inhibition of growth, 48 hours vs 2% DMSO control, read-out: Compound Concentration (ppm) for ≥90% inhibition, Fm
[18] = concentration sufficient to ≥90% inhibition of growth, 48 hours vs 2% DMSO control, read-out: Compound Concentration (ppm) for ≥90% inhibition, Dm
[19] = concentration sufficient to ≥90% inhibition of growth, 48 hours vs 2% DMSO control, read-out: Compound Concentration (ppm) for ≥90% inhibition, Bc
[20] = concentration sufficient to ≥90% inhibition of growth, 48 hours vs 2% DMSO control, read-out: Compound Concentration (ppm) for ≥90% inhibition, Rs
[21] = concentration sufficient to ≥90% inhibition of growth, 48 hours vs 2% DMSO control, read-out: Compound Concentration (ppm) for ≥90% inhibition, Fv
[22] = concentration sufficient to ≥90% inhibition of growth, 48 hours vs 2% DMSO control, read-out: Compound Concentration (ppm) for ≥90% inhibition, Cg
[23] = concentration sufficient to ≥90% inhibition of growth, 48 hours vs 2% DMSO control, read-out: Compound Concentration (ppm) for ≥90% inhibition, St
[24] = concentration sufficient to ≥90% inhibition of growth, 48 hours vs 2% DMSO control, read-out: Compound Concentration (ppm) for ≥90% inhibition, Pc
[25] = ≥90% growth inhibition, 48 hours, vs 2% DMSO control, read-out: Compound Concentration (ppm) sufficient for ≥90% inhibition of Fm
[26] = ≥90% growth inhibition, 48 hours, vs 2% DMSO control, read-out: Compound Concentration (ppm) sufficient for ≥90% inhibition of Dm
[27] = ≥90% growth inhibition, 48 hours, vs 2% DMSO control, read-out: Compound Concentration (ppm) sufficient for ≥90% inhibition of Bc
[28] = ≥90% growth inhibition, mycelial plugs, 48 hours, vs 2% DMSO control, read-out: Compound Concentration (ppm) sufficient for ≥90% inhibition of Rs
[29] = ≥90% growth inhibition, 48 hours, vs 2% DMSO control, read-out: Compound Concentration (ppm) sufficient for ≥90% inhibition of Fv
[30] = ≥90% growth inhibition, 48 hours, vs 2% DMSO control, read-out: Compound Concentration (ppm) sufficient for ≥90% inhibition of Cg
[31] = ≥90% growth inhibition, 48 hours, vs 2% DMSO control, read-out: Compound Concentration (ppm) sufficient for ≥90% inhibition of St
[32] = ≥90% growth inhibition, 48 hours, vs 2% DMSO control, read-out: Compound Concentration (ppm) sufficient for ≥90% inhibition of Pc

Row | SMILES | IC90 [1, 9] [µg/mL] | IC90 [2, 10] [µg/mL] | IC90 [3, 11] [µg/mL] | IC90 [4, 12] [µg/mL] | IC90 [5, 13] [µg/mL] | IC90 [6, 14] [µg/mL] | IC90 [7, 15] [µg/mL] | IC90 [8, 16] [µg/mL] | IC90 [1, 25] [µg/mL] | IC90 [2, 26] [µg/mL] | IC90 [3, 27] [µg/mL] | IC90 [4, 28] [µg/mL] | IC90 [5, 29] [µg/mL] | IC90 [6, 30] [µg/mL] | IC90 [7, 31] [µg/mL] | IC90 [8, 32] [µg/mL] | further results
1 | COc1ccc(F)cc1[C@H](Cn1c(=O)n(C(C)(C)C(=O)N2CCCC2)c(=O)c2c(C)c(-n3nccn3)sc21)OCC(C)(C)O [Compound I-073] | 0.08 (≈ 0.127 µM) | 2 (≈ 3.18 µM) | 2 (≈ 3.18 µM) | ≥ 0.4 | 0.4 (≈ 0.636 µM) | 0.4 (≈ 0.636 µM) | ≥ 10 | > 50 | – | – | – | – | – | – | – | – | –
2 | COc1ccc(F)cc1[C@H](Cn1c(=O)n([C@@H](C)C(=O)NC(C)C)c(=O)c2c(C)c(-n3nccn3)sc21)OC(C)C [Compound I-057] | 0.08 (≈ 0.14 µM) | 0.4 (≈ 0.698 µM) | 0.4 (≈ 0.698 µM) | 0.4 (≈ 0.698 µM) | 0.4 (≈ 0.698 µM) | 0.08 (≈ 0.14 µM) | 50 (≈ 87.3 µM) | 50 (≈ 87.3 µM) | – | – | – | – | – | – | – | – | –
3 | COCCO[C@@H](Cn1c(=O)n([C@H](C)C(=O)N2CCCC2)c(=O)c2c(C)c(-n3nccn3)sc21)c1cc(F)ccc1OC [Compound I-140] | 0.4 (≈ 0.666 µM) | 10 (≈ 16.6 µM) | 2 (≈ 3.33 µM) | 2 (≈ 3.33 µM) | 0.4 (≈ 0.666 µM) | 10 (≈ 16.6 µM) | > 50 | > 50 | – | – | – | – | – | – | – | – | –
4 | CCOC(=O)c1sc2c(c1C)c(=O)n([C@H](C)C(N)=O)c(=O)n2C[C@H](OCCC#N)c1cc(F)ccc1OC [Compound I-228] | – | – | – | – | – | – | – | – | – | – | – | – | – | – | – | – | IC90 [1, 17]: 10 µg/mL (≈ 18.3 µM); IC90 [2, 18]: > 50 µg/mL; IC90 [3, 19]: 10 µg/mL (≈ 18.3 µM); IC90 [4, 20]: 2 µg/mL (≈ 3.66 µM); IC90 [5, 21]: > 50 µg/mL; IC90 [6, 22]: > 50 µg/mL; IC90 [7, 23]: > 50 µg/mL; IC90 [8, 24]: > 50 µg/mL
5 | CCOC(=O)c1sc2c(c1C)c(=O)n(C(C)(C)C(N)=O)c(=O)n2C[C@H](OCCO)c1cc(F)ccc1OC [Compound I-183] | – | – | – | – | – | – | – | – | 2 (≈ 3.63 µM) | > 50 | 10 (≈ 18.1 µM) | 2 (≈ 3.63 µM) | 50 (≈ 90.6 µM) | > 50 | > 50 | > 50 | –
6 | COc1ccc(F)cc1[C@H](Cn1c(=O)n(C(C)(C)C(=O)N2CCCC2)c(=O)c2c(C)c(-n3cccn3)sc21)OC1CCOCC1 [Compound I-045] | 0.08 (≈ 0.125 µM) | ≥ 2 | 2 (≈ 3.13 µM) | 2 (≈ 3.13 µM) | 10 (≈ 15.6 µM) | ≥ 0.4 | > 50 | > 50 | – | – | – | – | – | – | – | – | –
7 | COc1ccccc1[C@H](Cn1c(=O)n(C(C)(C)C(=O)NC(C)C)c(=O)c2c(C)c(-n3nccn3)sc21)OCCC(=O)NO [Compound I-266] | – | – | – | – | – | – | – | – | 2 (≈ 3.26 µM) | 10 (≈ 16.3 µM) | 2 (≈ 3.26 µM) | 2 (≈ 3.26 µM) | 2 (≈ 3.26 µM) | 10 (≈ 16.3 µM) | > 50 | ≥ 50 | –
8 | COc1ccc(F)cc1[C@H](Cn1c(=O)n(C(C)(C)C(=O)N2CCCC2)c(=O)c2c(C)c(-n3cccn3)sc21)OC(C)C [Compound I-044] | 0.08 (≈ 0.134 µM) | 2 (≈ 3.35 µM) | 0.4 (≈ 0.669 µM) | 0.4 (≈ 0.669 µM) | 0.4 (≈ 0.669 µM) | 0.4 (≈ 0.669 µM) | > 50 | > 50 | – | – | – | – | – | – | – | – | –
9 | COc1ccccc1[C@H](Cn1c(=O)n(C(C)(C)C(=O)N2CCCC2)c(=O)c2c(C)c(-n3nccn3)sc21)OCCC#N [Compound I-196] | – | – | – | – | – | – | – | – | 0.4 (≈ 0.676 µM) | 10 (≈ 16.9 µM) | 2 (≈ 3.38 µM) | 2 (≈ 3.38 µM) | 2 (≈ 3.38 µM) | 10 (≈ 16.9 µM) | > 50 | > 50 | –
10 | COc1ccc(F)cc1[C@H](Cn1c(=O)n(C(C)(C)C(=O)NC(C)C)c(=O)c2c(C)c(-n3nccn3)sc21)OC(=O)CO [Compound I-309] | – | – | – | – | – | – | – | – | – | – | – | – | – | – | – | – | IC90 [1, 17]: 10 µg/mL (≈ 16.6 µM); IC90 [2, 18]: > 50 µg/mL; IC90 [3, 19]: 50 µg/mL (≈ 83 µM); IC90 [4, 20]: > 50 µg/mL; IC90 [5, 21]: 10 µg/mL (≈ 16.6 µM); IC90 [6, 22]: > 50 µg/mL; IC90 [7, 23]: > 50 µg/mL; IC90 [8, 24]: > 50 µg/mL
